Laboratory results as given in patent publication US20100210735A1, “Modulating the Activity of Nuclear Receptors in Order to Treat Hypoxia-Related Disorders” (UNIVERSITY OF FLORIDA RESEARCH FOUNDATION, INC., priority 2007, published 2010).
“Also recorded” adds a separate entry of the source.

What was measured:
[1] = tested on: HIF-dependent reporter (HRE-Luc); experiment: HIF-dependent luciferase reporter (HRE-Luc) assay in SKBR3 cells; type: cell-based, human; settings: DP (100 uM), DES (50 uM) or 4HT (10 uM)
Experimental: All human cancer cells were maintained in the following basal media (Invitrogen) supplemented with 10% fetal bovine serum: breast cancer cell line MDA-MB-435 in DMEM/F12, melanoma WM266 cells in McCoy's 5A, breast cancer SKBr3 in DMEM. […] The antibiotic G418 was added in the medium (800 ug/mL) for selection of stable dnERR transfectants. Anaerobic culture was achieved using GasPak Pouch System (BD Biosciences). The HIF-dependent reporter HRE-Luc was generated by inserting the two copies of synthetic HRE from PGK1 into a pGL3 luciferase vector. (Promega) Epo-Luc and PGK1-Luc were created by cloning the PCR-amplified HIF-dependent enhancer and promoter regions of Epo and PGK1, respectively, Full-length EST clones encoding ERR-α, -β, -γ, HIF-1α, -2α, -1β were used for in vitro translation (Promega TNT kit), production of GST fusions by cloning into the pGEX vector, and mammalian expression by cloning into modified pcDNA3 vectors with Flag or HA epitope tags. ERR Deletion mutants were generated by PCR. dnERR was constructed by PCR amplification of ERRβ DBD and Engrailed repression domain, followed by a three-way ligation into pcDNA3. Anti-Flag, -HA, -ERRα, and -HIF1α antibodies were obtained from Sigma, Covance, Upstate, and BD Biosciences and Novus, respectively.

ERRγ-HIF association = ERRγ-HIF association (Homo sapiens, UniProt P62508); settings: DES (50 μM) or 4HT (10 μM); GST pulldown
Experimental: In vitro translated HIF proteins were mixed with GST or GST-ERR fusions and assayed for binding.
All procedures followed standard molecular biology techniques. […] For GST binding and IP, we used the following binding buffer (20 mM Tris, pH7.5, 150 mM NaCl, 0.5% NP-40, and protease inhibitor cocktail (Roche)). […] In later experiments, we added proteasome inhibitor MG132 (10 uM) into the buffer.
We examined whether mammalian HIF and ERR proteins interact with each other in vitro by the common glutathione S-transferase (GST) pulldown assay. We fused full-length cDNAs of ERRα, β, and γ to GST and generated fusion proteins in bacteria. We assayed them for binding to in vitro translated full-length HIF1α, HIF2α, and HIF1β.
These compounds were tested to determine whether they might interfere with the ERR-HT interaction.

ERRs (ERRα, ERRβ, ERRγ) = settings: literature (Tremblay et al, 2001; Ariazi and Jordan, 2006); cited from earlier work
pregnant female mice = settings: DES 500 μg/mouse; literature (Tremblay et al, 2001); cited from earlier work
[2] = tested on: hypoxic genes (VEGF, PGK1, LDHA, Eno1, Glut1) in MDA-MB-435 cells; experiment: Northern blot of hypoxic gene expression in MDA-MB-435 breast cancer cells; type: cell-based, human; settings: severe hypoxia, DES (50 uM)
Text: (§1) For Northern blot analysis, nylon membranes carrying total RNA samples were hybridized with probes made from cDNA fragments encoding for VEGF, PGK1, lactate dehydrogenase A(LDHA), Enolase 1 (Eno1), and Glucose transporter 1 (Glut1). The 18s rRNA and β-actin served as loading controls.
All human cancer cells were maintained in the following basal media (Invitrogen) supplemented with 10% fetal bovine serum: breast cancer cell line MDA-MB-435 in DMEM/F12, melanoma WM266 cells in McCoy's 5A, breast cancer SKBr3 in DMEM. […] The antibiotic G418 was added in the medium (800 ug/mL) for selection of stable dnERR transfectants. Anaerobic culture was achieved using GasPak Pouch System (BD Biosciences).
All procedures followed standard molecular biology techniques. […] HIFα was not stable.
The HIF-mediated hypoxic response is defined by transcriptional activation of many hypoxic genes. We asked whether inhibition of ERR was capable of blocking hypoxic-induced transcription of endogenous genes.

HIF1α = experiment: Western blot analysis for HIF1α in SKBR3 cells; type: cell-based, human; settings: DP and DES
Text: HIF1α was detected with anti-HIF1α antibody. The same blot was reprobed with an antitubulin antibody. Tubulin served as a loading control. All procedures followed standard molecular biology techniques.

[3] = tested on: hypoxic genes (VEGF, glycolytic enzymes) in SKBR3 cells; experiment: Northern blot of hypoxic gene expression in SKBR3 breast cancer cells; type: cell-based, human; settings: DP (100 uM), DES (50 uM)
Text: For Northern blot analysis, nylon membranes carrying total RNA samples were hybridized with probes made from cDNA fragments encoding for VEGF, PGK1, lactate dehydrogenase A(LDHA), Enolase 1 (Eno1), and Glucose transporter 1 (Glut1). The 18s rRNA and β-actin served as loading controls. […] All human cancer cells were maintained in the following basal media (Invitrogen) supplemented with 10% fetal bovine serum: breast cancer cell line MDA-MB-435 in DMEM/F12, melanoma WM266 cells in McCoy's 5A, breast cancer SKBr3 in DMEM. […] The antibiotic G418 was added in the medium (800 ug/mL) for selection of stable dnERR transfectants. Anaerobic culture was achieved using GasPak Pouch System (BD Biosciences). All procedures followed standard molecular biology techniques. […] The HIF-mediated hypoxic response is defined by transcriptional activation of many hypoxic genes.

[4] = tested on: tumor angiogenesis in MDA-MB-435 xenograft; experiment: CD34 immunostaining of tumor xenografts for blood vessel density; type: in vivo, mice; settings: 750 μg DES daily, oral, after 3 weeks of treatment
Experimental: Tumor transplants were processed and subjected to CD34 immunostaining for blood vessels (brown staining). […] Scale bars, 65 μm. […] Microvessel density was determined by counting the number of CD34 positive blood vessels from four randomly chosen visual fields from each group of tumors. The average number in the fields was taken as the mean of vessel density of the group. Tumors were dissected at time of necropsy, weighed, and fixed in 4% paraformaldehyde in PBS overnight. Samples were dehydrated in 70% ethanol, paraffin embedded, and sectioned ([…]). Deparaffinized sections were stained for CD34 to assess blood vessel density. Briefly, samples were microwaved in sodium citrate (pH 6) for 20 min. for antigen retrieval, and treated with 3% H2O2 at room temperature for 20 min. to quench endogenous peroxidase activity. Sections were then blocked in 1.5% rabbit serum and incubated with rat anti-mouse CD34 antibody (1:100 dilution, clone MEC14.7, BioLegend), followed by biotinylated rabbit anti-rat IgG (1:200 dilution; Vector Laboratories). Detection was done with avidin-biotin-HRP complex (Vector laboratories) and di-aminobenzidin as chromogen. […] As angiogenesis is a key part of hypoxic response and is required to support tumor growth beyond a certain threshold size, we assessed tumor vascularization by performing immunohistochemical staining using anti-CD34 antibody. […]

[5] = tested on: MDA-MB-435 breast cancer xenograft; experiment: Tumor xenograft experiment, human MDA-MB-435 breast cancer cells in SCID mice; type: in vivo; settings: 750 μg DES daily, oral
Experimental: Tumor volume was measured weekly.
Tumor xenografts were harvested at time of necropsy (after 3 weeks of treatment) and weighed. […] Scale Bars represent average tumor weight.
MDA-MB-435 cells (5×10^6) were resuspended in a mixture of 100 uL of PBS and Matrigel (BD Biosciences, Bedford, Mass.; 2:1 ratio), and injected subcutaneously into the fourth mammary gland fat pad of 6- to 8-week-old female severe combined immunodeficient (SCID) mice. […] The mice bearing tumor xenografts were randomly divided into two groups. […] Tumors were serially measured weekly with a ruler and the tumor volumes were calculated with the following formula: volume (mm^3)=width^2× length/2. After 3 weeks of treatment, the mice were euthanized. All animal studies were approved by the Institutional Animal Care and Use Committee (IACUC) at the University of Florida.
At the end of treatment, tumors were excised and analyzed.

[6] = tested on: hypoxic genes in A549 lung cancer cells; experiment: Hypoxic gene expression in A549 lung cancer cells; type: cell-based, human; settings: A549 lung cancer cells treated with DP and RES
Text: as §1

Chain of ERRγ-HIF association (P62508 whole entry): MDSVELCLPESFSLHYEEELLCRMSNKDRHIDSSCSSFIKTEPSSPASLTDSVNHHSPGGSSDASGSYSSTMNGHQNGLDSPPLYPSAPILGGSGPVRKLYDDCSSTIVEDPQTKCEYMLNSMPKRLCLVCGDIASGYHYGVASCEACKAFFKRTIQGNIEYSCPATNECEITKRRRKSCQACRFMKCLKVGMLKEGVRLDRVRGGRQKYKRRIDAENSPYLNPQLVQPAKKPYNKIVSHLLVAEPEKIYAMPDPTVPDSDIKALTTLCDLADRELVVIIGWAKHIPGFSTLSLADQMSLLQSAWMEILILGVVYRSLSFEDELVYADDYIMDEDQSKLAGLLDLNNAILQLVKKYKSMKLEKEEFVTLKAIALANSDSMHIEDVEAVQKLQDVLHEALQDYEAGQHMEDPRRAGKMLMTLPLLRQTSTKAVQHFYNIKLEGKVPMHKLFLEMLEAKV
Chain of ERRγ-HIF association (Q16665 whole entry partner): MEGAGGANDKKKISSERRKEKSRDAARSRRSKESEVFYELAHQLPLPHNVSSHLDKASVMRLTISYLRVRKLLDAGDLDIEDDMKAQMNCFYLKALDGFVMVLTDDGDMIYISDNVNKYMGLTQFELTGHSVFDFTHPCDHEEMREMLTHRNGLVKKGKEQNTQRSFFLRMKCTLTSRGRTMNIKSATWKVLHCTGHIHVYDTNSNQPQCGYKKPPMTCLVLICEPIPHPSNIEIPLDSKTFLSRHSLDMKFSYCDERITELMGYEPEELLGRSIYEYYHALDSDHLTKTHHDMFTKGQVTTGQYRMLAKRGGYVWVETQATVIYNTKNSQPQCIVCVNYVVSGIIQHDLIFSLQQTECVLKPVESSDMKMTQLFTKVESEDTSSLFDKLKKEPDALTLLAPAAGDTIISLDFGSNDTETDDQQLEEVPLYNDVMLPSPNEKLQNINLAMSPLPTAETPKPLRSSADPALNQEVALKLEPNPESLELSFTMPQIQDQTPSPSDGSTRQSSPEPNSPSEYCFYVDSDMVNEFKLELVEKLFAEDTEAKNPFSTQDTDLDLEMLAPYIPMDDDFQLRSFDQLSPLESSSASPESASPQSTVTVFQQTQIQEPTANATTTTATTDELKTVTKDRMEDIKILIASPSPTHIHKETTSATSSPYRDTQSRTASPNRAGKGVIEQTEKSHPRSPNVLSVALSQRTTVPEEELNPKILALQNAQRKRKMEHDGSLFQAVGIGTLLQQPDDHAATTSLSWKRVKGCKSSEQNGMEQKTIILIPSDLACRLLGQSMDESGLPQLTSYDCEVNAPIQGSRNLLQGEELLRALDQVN
Chain of ERRγ-HIF association (P27540 whole entry partner): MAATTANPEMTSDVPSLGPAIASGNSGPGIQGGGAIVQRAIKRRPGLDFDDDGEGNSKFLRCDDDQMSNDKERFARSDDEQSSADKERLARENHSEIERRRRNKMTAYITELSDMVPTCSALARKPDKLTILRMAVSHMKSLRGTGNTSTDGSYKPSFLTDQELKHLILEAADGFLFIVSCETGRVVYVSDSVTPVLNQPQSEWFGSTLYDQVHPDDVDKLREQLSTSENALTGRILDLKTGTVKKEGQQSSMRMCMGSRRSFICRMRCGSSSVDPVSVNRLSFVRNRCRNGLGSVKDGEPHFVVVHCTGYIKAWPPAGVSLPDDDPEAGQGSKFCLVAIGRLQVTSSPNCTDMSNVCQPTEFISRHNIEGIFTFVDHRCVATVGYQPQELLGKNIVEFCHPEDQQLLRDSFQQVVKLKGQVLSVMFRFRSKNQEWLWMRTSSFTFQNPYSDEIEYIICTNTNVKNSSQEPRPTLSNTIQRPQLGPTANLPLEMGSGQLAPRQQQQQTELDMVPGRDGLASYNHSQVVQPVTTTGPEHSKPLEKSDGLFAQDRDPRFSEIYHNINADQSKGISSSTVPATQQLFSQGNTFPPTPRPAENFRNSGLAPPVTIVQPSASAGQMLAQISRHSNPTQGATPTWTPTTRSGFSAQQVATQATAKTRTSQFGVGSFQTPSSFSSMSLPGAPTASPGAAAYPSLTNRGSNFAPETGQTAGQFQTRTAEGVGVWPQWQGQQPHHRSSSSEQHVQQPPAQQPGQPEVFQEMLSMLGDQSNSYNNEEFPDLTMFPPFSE

effect on ERRγ-HIF association (ERRγ-HIF association) | Compound | activation of the HIF-dependent reporter by DP-induced HIF stabilization [1] | activity on ERRs / ERR-coactivator interaction (ERRs (ERRα, ERRβ, ERRγ)) | effect in pregnant female mice (pregnant female mice) | transcriptional induction of HIF target genes [2] | HIF1α protein stabilization by DP (HIF1α) | transcriptional induction of HIF target genes [3] | micro vascular density in tumors (CD34 positive blood vessels) [4] | tumor volumes and growth rate versus vehicle-treated control ([5]; 3 weeks, SCID mice) | tumor xenograft growth upon treatment ([5]; SCID mice) | tumor weight at end of treatment versus vehicle-treated mice ([5]; after 3 weeks of treatment) | hypoxia-induced gene transcription [6] | hypoxia-induced gene transcription ([6]; listed as Resveratrol)
resistant; also recorded: insensitive | 4-hydroxytamoxifen [4HT] | Lack of effects | selectively inhibits ERRγ |  |  |  |  |  |  |  |  |  | 
 | CC/C(=C(/CC)c1ccc(O)cc1)c1ccc(O)cc1 [DES, diethylstilbestrol] | severely impaired; also recorded: attenuates HIF activity | antagonist of all three ERRs | placental defects | largely abolished | stabilized normally | largely abolished | clear reduction; also recorded: few blood vessels; also recorded: reduced | dramatic reduction | essentially stopped growing | about 3 times lighter |  | 
 | Oc1ccc(C=Cc2cc(O)cc(O)c2)cc1 [resveratrol] |  | capable of dissociating coactivator complexes from all three ERRs, albeit at higher concentrations than DES |  |  |  |  |  |  |  |  | manifested inhibitory activities | reduced hypoxic gene expression
